Results published in PubChem BioAssay (NCI).
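Five compound concentrations were applied to cells in 96-well plates for 48 hours; endpoints were derived by simple linear interpolation of the resulting dose-response curve. TGI denotes the concentration required for complete inhibition of growth.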

Columns and labels:
Assay in all cases: inhibition of tumour cell growth, NCI panel, 48 h
[1] = tested on: OVCAR-8 ovarian
[2] = tested on: SNB-78 CNS
[3] = tested on: HCC-2998 colon
[4] = tested on: SK-MEL-28 melanoma
[5] = tested on: 786-0 renal
[6] = tested on: HOP-18 NSCLC
[7] = tested on: CAKI-1 renal
[8] = tested on: NCI-H23 lung
[9] = tested on: SN12C renal
[10] = tested on: MOLT-4 leukemia
[11] = tested on: OVCAR-4 ovarian
[12] = tested on: RXF 393 renal
[13] = tested on: UACC-62 melanoma
[14] = tested on: OVCAR-3 ovarian
[15] = tested on: HCT-15 colon
[16] = tested on: A549 NSCLC
[17] = tested on: M14 melanoma
[18] = tested on: SW-620 colon
[19] = tested on: LXFL 529 NSCLC
[20] = tested on: SNB-19 CNS
[21] = tested on: UACC-257 melanoma
[22] = tested on: NCI-H522 lung
[23] = tested on: DLD-1 colon
[24] = tested on: HOP-92 NSCLC
[25] = tested on: SF-268 CNS
[26] = tested on: OVCAR-5 ovarian
[27] = tested on: NCI-H460 lung
[28] = tested on: MALME-3M melanoma
[29] = tested on: UO-31 renal
[30] = tested on: K-562 leukemia
[31] = tested on: HT29 colon
[32] = tested on: KM12 colon
[33] = tested on: SK-MEL-2 melanoma
[34] = tested on: HL-60(TB) leukemia
[35] = tested on: ACHN renal
[36] = tested on: EKVX NSCLC
[37] = tested on: SK-MEL-5 melanoma
[38] = tested on: IGROV1 ovarian
[39] = tested on: RPMI-8226 leukemia
[40] = tested on: U251 CNS
[41] = tested on: M19-MEL melanoma
[42] = tested on: HOP-62 NSCLC
[43] = tested on: NCI-H226 lung
[44] = tested on: SF-539 CNS
[45] = tested on: HCT-116 colon
[46] = tested on: LOX IMVI melanoma
[47] = tested on: SK-OV-3 ovarian
[48] = tested on: CCRF-CEM leukemia
[49] = tested on: DMS 114 small cell lung
[50] = tested on: TK-10 renal
[51] = tested on: SF-295 CNS
[52] = tested on: BT-549 breast
[53] = tested on: DU-145 prostate
[54] = tested on: MDA-MB-435
[55] = tested on: MDA-N
[56] = tested on: MDA-MB-231 breast
[57] = tested on: SNB-75 CNS
[58] = tested on: PC-3 prostate
[59] = tested on: COLO 205 colon
[60] = tested on: MCF7 breast
[61] = tested on: NCI/ADR-RES ovarian
[62] = tested on: T-47D breast
[63] = tested on: A498 renal
[64] = tested on: HS 578T breast
[65] = tested on: SR leukemia

O=[N+]([O-])c1ccc(/C=C/c2csnn2)cc1
TGI [1]: > 100 µM
TGI [2]: > 100 µM
TGI [3]: > 100 µM
TGI [4]: > 100 µM
TGI [5]: > 100 µM
TGI [6]: > 100 µM
TGI [7]: > 100 µM
TGI [8]: > 100 µM
TGI [9]: > 100 µM
TGI [10]: > 100 µM
TGI [11]: > 100 µM
TGI [12]: > 100 µM
TGI [13]: > 100 µM
TGI [14]: > 100 µM
TGI [15]: > 100 µM
TGI [16]: > 100 µM
TGI [17]: > 100 µM
TGI [18]: > 100 µM
TGI [19]: > 100 µM
TGI [20]: > 100 µM
TGI [21]: > 100 µM
TGI [22]: > 100 µM
TGI [23]: > 100 µM
TGI [24]: > 100 µM
TGI [25]: > 100 µM
TGI [26]: > 100 µM
TGI [27]: > 100 µM
TGI [28]: > 100 µM
TGI [29]: > 100 µM
TGI [30]: > 100 µM
TGI [31]: > 100 µM
TGI [32]: > 100 µM
TGI [33]: > 100 µM
TGI [34]: > 100 µM
TGI [35]: > 100 µM
TGI [36]: > 100 µM
TGI [37]: > 100 µM
TGI [38]: > 100 µM
TGI [39]: > 100 µM
TGI [40]: > 100 µM
TGI [41]: > 100 µM
TGI [42]: > 100 µM
TGI [43]: > 100 µM
TGI [44]: > 100 µM
TGI [45]: > 100 µM
TGI [46]: > 100 µM
TGI [47]: > 100 µM
TGI [48]: > 100 µM
TGI [49]: > 100 µM
TGI [50]: > 100 µM
TGI [51]: > 100 µM

O=C(O)C1(Cc2ccc3c(c2)CCC3)Cc2ccccc2C1
TGI [52]: > 100 µM
TGI [1]: > 100 µM
TGI [3]: > 100 µM
TGI [4]: > 100 µM
TGI [5]: > 100 µM
TGI [53]: > 100 µM
TGI [54]: > 100 µM
TGI [8]: > 100 µM
TGI [9]: > 100 µM
TGI [55]: > 100 µM
TGI [56]: > 100 µM
TGI [10]: > 100 µM
TGI [11]: > 100 µM
TGI [57]: > 100 µM
TGI [12]: > 100 µM
TGI [58]: > 100 µM
TGI [13]: > 100 µM
TGI [14]: > 100 µM
TGI [15]: > 100 µM
TGI [16]: > 100 µM
TGI [59]: > 100 µM
TGI [17]: > 100 µM
TGI [18]: > 100 µM
TGI [20]: > 100 µM
TGI [21]: > 100 µM
TGI [22]: > 100 µM
TGI [24]: > 100 µM
TGI [25]: > 100 µM
TGI [26]: > 100 µM
TGI [27]: > 100 µM
TGI [60]: > 100 µM
TGI [28]: > 100 µM
TGI [29]: > 100 µM
TGI [61]: > 100 µM
TGI [30]: > 100 µM
TGI [31]: > 100 µM
TGI [32]: > 100 µM
TGI [33]: > 100 µM
TGI [62]: > 100 µM
TGI [34]: > 100 µM
TGI [35]: > 100 µM
TGI [36]: > 100 µM
TGI [37]: > 100 µM
TGI [38]: > 100 µM
TGI [39]: > 100 µM
TGI [63]: > 100 µM
TGI [40]: > 100 µM
TGI [42]: > 100 µM
TGI [43]: > 100 µM
TGI [44]: > 100 µM
TGI [45]: > 100 µM
TGI [46]: > 100 µM
TGI [47]: > 100 µM
TGI [64]: > 100 µM
TGI [65]: > 100 µM
TGI [48]: > 100 µM
TGI [50]: > 100 µM
TGI [51]: > 100 µM

CC(C)(C)c1cc(OCc2nnc3sc(=S)[nH]n23)c(Cl)cc1OCc1nnc2sc(=S)[nH]n12
TGI [52]: > 100 µM
TGI [1]: > 100 µM
TGI [3]: 65.2 µM
TGI [4]: 58.4 µM
TGI [5]: 95 µM
TGI [53]: 94 µM
TGI [54]: 55.1 µM
TGI [7]: 80.5 µM
TGI [8]: 95.5 µM
TGI [9]: > 100 µM
TGI [55]: 40.6 µM
TGI [56]: > 100 µM
TGI [10]: > 100 µM
TGI [11]: 80.6 µM
TGI [57]: 92 µM
TGI [12]: 69.1 µM
TGI [58]: > 100 µM
TGI [13]: 32.6 µM
TGI [14]: 63.6 µM
TGI [15]: > 100 µM
TGI [16]: > 100 µM
TGI [59]: > 100 µM
TGI [17]: 75.7 µM
TGI [18]: > 100 µM
TGI [20]: > 100 µM
TGI [21]: 83.8 µM
TGI [22]: 37.8 µM
TGI [24]: 53.3 µM
TGI [25]: > 100 µM
TGI [26]: > 100 µM
TGI [27]: 81.8 µM
TGI [60]: 31.6 µM
TGI [28]: 46.9 µM
TGI [29]: 82.4 µM
TGI [61]: > 100 µM
TGI [30]: > 100 µM
TGI [31]: > 100 µM
TGI [32]: 68.7 µM
TGI [33]: 58.9 µM
TGI [62]: 57.7 µM
TGI [34]: 55.5 µM
TGI [35]: 76.8 µM
TGI [36]: 85.4 µM
TGI [37]: 29.5 µM
TGI [38]: 66.4 µM
TGI [39]: > 100 µM
TGI [63]: 88.7 µM
TGI [40]: 65.2 µM
TGI [42]: > 100 µM
TGI [43]: > 100 µM
TGI [44]: > 100 µM
TGI [45]: 50.6 µM
TGI [46]: 34.2 µM
TGI [47]: > 100 µM
TGI [64]: > 100 µM
TGI [65]: 50.8 µM
TGI [48]: 37.3 µM
TGI [50]: 99.8 µM
TGI [51]: > 100 µM
